Assay results as given in the supplement of paper PMC6461962.

Test system: Rhodanobacter sp. FW104-10B01
Settings: medium / electron acceptor: 10B01 R2A/aerobic
How it was run: (§1)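 Washed cells (final OD600 0.02, 80 µL) were added to 384-well plates of serially diluted inorganic ion salts or equimolar nitrilotriacetic acid complexes. Aerobic plates were shaken at 700 rpm at 30 °C, and anaerobic plates were left unshaken. OD600 was read at 24 h (48 h for R2A strain comparisons) and scaled between water and growth-blocking antibiotic controls, dropping wells with precipitate. IC50 came from drc R package fits of at least two biological replicate curves.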

Row | SMILES | IC50 growth inhibition
1 | [O-][Cl+2]([O-])O [Sodium Chlorate] | 355 mM
2 | [Cl-].[Na+] [Sodium Chloride] | 708 mM
3 | [O-][Cl+]O [Sodium Chlorite] | > 5 mM
4 | O.O.O.O.O.O.O.O=[As]([O-])([O-])O.[Na+].[Na+] [Sodium arsenate dibasic heptahydrate] | > 500 mM
5 | OCl [Sodium hypochlorite] | > 5 mM
6 | O=P[O-].[Na+] [Sodium hypophosphite monohydrate] | 354 mM
7 | O=[Si](O)O [Sodium metasilicate] | < 0.244 mM
8 | [Na+].[O]=[V](=[O])[O-] [Sodium metavanadate] | > 50 mM
9 | [Na+].[Na+].[O]=[Mo](=[O])([O-])[O-] [Sodium molybdate] | 354 mM
10 | O=[N+]([O-])[O-].[Na+] [Sodium nitrate] | > 500 mM
11 | O=NO [Sodium nitrite] | > 50 mM
12 | [O-][Cl+3]([O-])([O-])O [Sodium perchlorate monohydrate] | 354 mM
13 | [O-][I+3]([O-])([O-])O [Sodium periodate] | 0.101 mM
14 | O=P([O-])(O)O.[Na+] [Sodium phosphate monobasic monohydrate] | 354 mM
15 | OP(O)O [Sodium phosphite dibasic pentahydrate] | > 500 mM
16 | O=P(O)(O)OP(=O)(O)O [Sodium pyrophosphate dibasic] | 8.54 mM
17 | O=[Se](=O)([O-])[O-].[Na+].[Na+] [Sodium selenate] | 251 mM
18 | O=[Se]([O-])[O-].[Na+].[Na+] [Sodium selenite pentahydrate] | 250 mM
19 | O.O.O.O.O.O.O.O.O.O.O=S(=O)([O-])[O-].[Na+].[Na+] [Sodium sulfate] | 354 mM
20 | OP(O)(O)=S [Sodium thiophosphate tribasic hydrate] | > 50 mM
21 | O=S(O)(O)=S [Sodium thiosulfate] | > 500 mM
22 | O.O.[Na+].[Na+].[O]=[W](=[O])([O-])[O-] [Sodium tungstate dihydrate] | > 500 mM

Same assay, conditions: medium / electron acceptor: 10B01 R2A/nitrate

Row | SMILES | IC50 growth inhibition
23 | [O-][Cl+2]([O-])O [Sodium Chlorate] | < 0.244 mM
24 | [Cl-].[Na+] [Sodium Chloride] | 545 mM
25 | [O-][Cl+]O [Sodium Chlorite] | > 5 mM
26 | O.O.O.O.O.O.O.O=[As]([O-])([O-])O.[Na+].[Na+] [Sodium arsenate dibasic heptahydrate] | > 500 mM
27 | OCl [Sodium hypochlorite] | > 5 mM
28 | O=P[O-].[Na+] [Sodium hypophosphite monohydrate] | 171 mM
29 | O=[Si](O)O [Sodium metasilicate] | < 0.244 mM
30 | [Na+].[O]=[V](=[O])[O-] [Sodium metavanadate] | > 50 mM
31 | [Na+].[Na+].[O]=[Mo](=[O])([O-])[O-] [Sodium molybdate] | 262 mM
32 | O=[N+]([O-])[O-].[Na+] [Sodium nitrate] | > 500 mM
33 | O=NO [Sodium nitrite] | > 50 mM
34 | [O-][Cl+3]([O-])([O-])O [Sodium perchlorate monohydrate] | 5.54 mM
35 | [O-][I+3]([O-])([O-])O [Sodium periodate] | 0.0825 mM
36 | O=P([O-])(O)O.[Na+] [Sodium phosphate monobasic monohydrate] | 128 mM
37 | OP(O)O [Sodium phosphite dibasic pentahydrate] | 197 mM
38 | O=P(O)(O)OP(=O)(O)O [Sodium pyrophosphate dibasic] | 0.854 mM
39 | O=[Se](=O)([O-])[O-].[Na+].[Na+] [Sodium selenate] | 163 mM
40 | O=[Se]([O-])[O-].[Na+].[Na+] [Sodium selenite pentahydrate] | 112 mM
41 | O.O.O.O.O.O.O.O.O.O.O=S(=O)([O-])[O-].[Na+].[Na+] [Sodium sulfate] | 317 mM
42 | OP(O)(O)=S [Sodium thiophosphate tribasic hydrate] | > 50 mM
43 | O=S(O)(O)=S [Sodium thiosulfate] | 57.6 mM
44 | O.O.[Na+].[Na+].[O]=[W](=[O])([O-])[O-] [Sodium tungstate dihydrate] | > 500 mM

Test system: Pseudomonas fluorescens FW300-N2E2
Settings: medium / electron acceptor: N2E2 Glucose/aerobic
How it was run: as §1

Row | SMILES | IC50 growth inhibition
45 | [O-][Cl+2]([O-])O [Sodium Chlorate] | 9.21 mM
46 | [Cl-].[Na+] [Sodium Chloride] | 699 mM
47 | [O-][Cl+]O [Sodium Chlorite] | < 0.00244 mM
48 | O.O.O.O.O.O.O.O=[As]([O-])([O-])O.[Na+].[Na+] [Sodium arsenate dibasic heptahydrate] | < 0.244 mM
49 | OCl [Sodium hypochlorite] | > 5 mM
50 | O=P[O-].[Na+] [Sodium hypophosphite monohydrate] | 354 mM
51 | O=[Si](O)O [Sodium metasilicate] | < 0.244 mM
52 | [Na+].[O]=[V](=[O])[O-] [Sodium metavanadate] | 0.0793 mM
53 | [Na+].[Na+].[O]=[Mo](=[O])([O-])[O-] [Sodium molybdate] | 20.3 mM
54 | O=[N+]([O-])[O-].[Na+] [Sodium nitrate] | 275 mM
55 | O=NO [Sodium nitrite] | 17.3 mM
56 | [O-][Cl+3]([O-])([O-])O [Sodium perchlorate monohydrate] | 67.2 mM
57 | [O-][I+3]([O-])([O-])O [Sodium periodate] | 5.52 mM
58 | O=P([O-])(O)O.[Na+] [Sodium phosphate monobasic monohydrate] | 50.2 mM
59 | OP(O)O [Sodium phosphite dibasic pentahydrate] | < 0.244 mM
60 | O=P(O)(O)OP(=O)(O)O [Sodium pyrophosphate dibasic] | 29.4 mM
61 | O=[Se](=O)([O-])[O-].[Na+].[Na+] [Sodium selenate] | < 0.244 mM
62 | O=[Se]([O-])[O-].[Na+].[Na+] [Sodium selenite pentahydrate] | < 0.244 mM
63 | O.O.O.O.O.O.O.O.O.O.O=S(=O)([O-])[O-].[Na+].[Na+] [Sodium sulfate] | 356 mM
64 | OP(O)(O)=S [Sodium thiophosphate tribasic hydrate] | > 50 mM
65 | O=S(O)(O)=S [Sodium thiosulfate] | 318 mM
66 | O.O.[Na+].[Na+].[O]=[W](=[O])([O-])[O-] [Sodium tungstate dihydrate] | < 0.244 mM

Same assay, conditions: medium / electron acceptor: N2E2 Glucose/aerobic 0.25xMinerals

Row | SMILES | IC50 growth inhibition
67 | [O-][Cl+2]([O-])O [Sodium Chlorate] | 8.75 mM
68 | [Cl-].[Na+] [Sodium Chloride] | 708 mM
69 | [O-][Cl+]O [Sodium Chlorite] | < 0.00244 mM
70 | O.O.O.O.O.O.O.O=[As]([O-])([O-])O.[Na+].[Na+] [Sodium arsenate dibasic heptahydrate] | < 0.244 mM
71 | OCl [Sodium hypochlorite] | > 5 mM
72 | O=P[O-].[Na+] [Sodium hypophosphite monohydrate] | 451 mM
73 | O=[Si](O)O [Sodium metasilicate] | < 0.244 mM
74 | [Na+].[O]=[V](=[O])[O-] [Sodium metavanadate] | 0.432 mM
75 | [Na+].[Na+].[O]=[Mo](=[O])([O-])[O-] [Sodium molybdate] | 2.62 mM
76 | O=[N+]([O-])[O-].[Na+] [Sodium nitrate] | > 500 mM
77 | O=NO [Sodium nitrite] | 6.63 mM
78 | [O-][Cl+3]([O-])([O-])O [Sodium perchlorate monohydrate] | 356 mM
79 | [O-][I+3]([O-])([O-])O [Sodium periodate] | 2.35 mM
80 | O=P([O-])(O)O.[Na+] [Sodium phosphate monobasic monohydrate] | > 500 mM
81 | OP(O)O [Sodium phosphite dibasic pentahydrate] | < 0.244 mM
82 | O=P(O)(O)OP(=O)(O)O [Sodium pyrophosphate dibasic] | 0.848 mM
83 | O=[Se](=O)([O-])[O-].[Na+].[Na+] [Sodium selenate] | < 0.244 mM
84 | O=[Se]([O-])[O-].[Na+].[Na+] [Sodium selenite pentahydrate] | < 0.244 mM
85 | O.O.O.O.O.O.O.O.O.O.O=S(=O)([O-])[O-].[Na+].[Na+] [Sodium sulfate] | > 500 mM
86 | OP(O)(O)=S [Sodium thiophosphate tribasic hydrate] | > 50 mM
87 | O=S(O)(O)=S [Sodium thiosulfate] | > 500 mM
88 | O.O.[Na+].[Na+].[O]=[W](=[O])([O-])[O-] [Sodium tungstate dihydrate] | < 0.244 mM

Same assay, conditions: medium / electron acceptor: N2E2 Glucose/aerobic (2)

Row | SMILES | IC50 growth inhibition
89 | [O-][Cl+2]([O-])O [Sodium Chlorate] | 0.387 mM
90 | [Cl-].[Na+] [Sodium Chloride] | 603 mM
91 | [O-][Cl+]O [Sodium Chlorite] | < 0.00244 mM
92 | O.O.O.O.O.O.O.O=[As]([O-])([O-])O.[Na+].[Na+] [Sodium arsenate dibasic heptahydrate] | < 0.244 mM
93 | OCl [Sodium hypochlorite] | 2.28 mM
94 | O=P[O-].[Na+] [Sodium hypophosphite monohydrate] | 146 mM
95 | O=[Si](O)O [Sodium metasilicate] | < 0.244 mM
96 | [Na+].[O]=[V](=[O])[O-] [Sodium metavanadate] | 0.0997 mM
97 | [Na+].[Na+].[O]=[Mo](=[O])([O-])[O-] [Sodium molybdate] | 3.39 mM
98 | O=[N+]([O-])[O-].[Na+] [Sodium nitrate] | 324 mM
99 | O=NO [Sodium nitrite] | 3.89 mM
100 | [O-][Cl+3]([O-])([O-])O [Sodium perchlorate monohydrate] | 117 mM
101 | [O-][I+3]([O-])([O-])O [Sodium periodate] | 1.56 mM
102 | O=P([O-])(O)O.[Na+] [Sodium phosphate monobasic monohydrate] | 73.8 mM
103 | OP(O)O [Sodium phosphite dibasic pentahydrate] | < 0.244 mM
104 | O=P(O)(O)OP(=O)(O)O [Sodium pyrophosphate dibasic] | 0.226 mM
105 | O=[Se](=O)([O-])[O-].[Na+].[Na+] [Sodium selenate] | < 0.244 mM
106 | O=[Se]([O-])[O-].[Na+].[Na+] [Sodium selenite pentahydrate] | < 0.244 mM
107 | O.O.O.O.O.O.O.O.O.O.O=S(=O)([O-])[O-].[Na+].[Na+] [Sodium sulfate] | > 500 mM
108 | OP(O)(O)=S [Sodium thiophosphate tribasic hydrate] | > 50 mM
109 | O=S(O)(O)=S [Sodium thiosulfate] | 386 mM
110 | O.O.[Na+].[Na+].[O]=[W](=[O])([O-])[O-] [Sodium tungstate dihydrate] | 3.31 mM

Same assay, conditions: medium / electron acceptor: N2E2 KB/aerobic

Row | SMILES | IC50 growth inhibition
111 | [O-][Cl+2]([O-])O [Sodium Chlorate] | 5.02 mM
112 | [Cl-].[Na+] [Sodium Chloride] | 660 mM
113 | [O-][Cl+]O [Sodium Chlorite] | < 0.00244 mM
114 | O.O.O.O.O.O.O.O=[As]([O-])([O-])O.[Na+].[Na+] [Sodium arsenate dibasic heptahydrate] | < 0.244 mM
115 | OCl [Sodium hypochlorite] | > 5 mM
116 | O=P[O-].[Na+] [Sodium hypophosphite monohydrate] | 380 mM
117 | O=[Si](O)O [Sodium metasilicate] | < 0.244 mM
118 | [Na+].[O]=[V](=[O])[O-] [Sodium metavanadate] | < 0.0244 mM
119 | [Na+].[Na+].[O]=[Mo](=[O])([O-])[O-] [Sodium molybdate] | 337 mM
120 | O=[N+]([O-])[O-].[Na+] [Sodium nitrate] | 354 mM
121 | O=NO [Sodium nitrite] | 15.3 mM
